Marks after values point to notes of the source that are not given here.
Columns and labels:
[1] = system: BALB/c male mice sensitized and challenged with OVA; test: Mouse asthma model (OVA challenge, bronchioalveolar lavage cell count); assay type: in vivo; details: 0.2 mg/kg per day
Procedure: In this experiment, the BEA formulation is prepared based present invention formulation (Formulation of Composition 1 in Example 1).
18 BALB/c male mice, 8 weeks old are sensitized with two intraperitoneal (IP) administrations, 5 days apart, of 10 μg chicken egg ovalbumin (OVA, grade V; Sigma) emulsified in 1 mg of aluminum hydroxide (Thermo Scientific, Rockford, Ill., USA) in a total volume of 100 μl. Then, after one month mice are challenged via intratracheal (IT) administration of 0.75% OVA. BEA formulation is administered at 0.2 mg/kg dose in an injection volume of 0.1 mL in two different routes of administration (intratracheal and subcutaneous (SC)), one hour after the OVA challenge and one dose per day for up to 7 days. Then, animals are euthanized by exsanguination under pentobarbital anesthesia. The bronchioalveolar lavage (BAL) of the mice are used to determine the total counts of inflammatory cells. Control mice receive saline solution intraperitoneally (IP). All experiments are performed in accordance with INCMN Mexico City regulations. Two independent experiments are performed.

[2] = system: ICR mice with colitis induced by DSS; test: DSS induced mouse colitis model; assay type: in vivo; details: for White blood cell count: Mean ± SD, n = 12; for Macrohage cell count: abdominal macrophages
Procedure: Experimental animals: 72 ICR mice, male and female, 25-29 g body weight before starting the experiment.
Subgrouping: The experimental animals are divided into 6 groups at random, 12 mice in each group: physiological saline group, high dose group (40 mg/kg), moderate dose group (20 mg/kg), low dose group (10 mg/kg) of BEA obtained in Formulation/Composition 1 of the present invention, Dexamethasone (0.1 mg/kg), DSS model group.
Model replication: The experimental mice are […] 3% DSS and fed with water routinely for 7 days, the colitis model is duplicated.
Administration of drug: the mice are injected with the test drug on the same day when DSS are injected.
Experimental animal management: the general physical condition, loose stools, and bloody stools are observed every day.
The fecal occult blood is tested 3 days after injected with drug. The blood tests are done on day 7. The macrophages are counted and their IL-6 and TNF-alpha are determined. Their inflammation and ulcer level are observed. The colon content is taken to smear, stain and then determined the G+/G−. The thymus, spleen, liver are taken to weight and calculate the organ index. Sections of colon are sent for pathological examination.

[3] = system: Vk*MYC Mice; test: Anti-myeloma activity in Vk*MYC mice (M-Spike); details: 15 mg/kg/day
Procedure: 3 Vk*MYC Mice are evaluated. […] The M-Spike value are assessed at day 7 and 14 respectively. […] The M-Spike value are assessed at day 7, 14 and 21 respectively.

[4] = system: Entamoeba histolytica; details: hamsters; cited from earlier work
[5] = system: Taenia crassiceps; details: mice, administration prior to infection with cysticerci; cited from earlier work

C[C@]12CC[C@H](O)C[C@@H]1CC[C@@H]1[C@@H]2CC[C@]2(C)C(=O)[C@H](Br)C[C@@H]12 [BEA, 16alpha-bromo-3beta-hydroxy-5alpha-androstan-17-ketone]
Inflammatory Cell Number in bronchioalveolar lavage ([1]; IT, Day 3): 4.61 × 10^4 | Inflammatory Cell Number in bronchioalveolar lavage ([1]; IT, Day 7): 5.99 × 10^4 | Inflammatory Cell Number in bronchioalveolar lavage ([1]; SC, Day 3): 4.07 × 10^4 | Inflammatory Cell Number in bronchioalveolar lavage ([1]; SC, Day 7): 1.06 × 10^5 | Final weight ([2]; BEA 10 mg/kg): 26.5 ± 2.6 g | IL-6/TNF-alpha ([2]; BEA 10 mg/kg): 9.5 ± 7.9 | IL-6 level ([2]; BEA 10 mg/kg): 551.7 ± 391.4 pg/mL | Spleen index ([2]; BEA 10 mg/kg): 5.7 ± 2.0 mg/g | TNFa level ([2]; BEA 10 mg/kg): 49.5 ± 23.2 pg/mL | The length of colon ([2]; BEA 10 mg/kg): 10.4 ± 1.0 cm | Thymus index ([2]; BEA 10 mg/kg): 2.7 ± 1.0 mg/g | Weight before fasting ([2]; BEA 10 mg/kg): 28.2 ± 2.8 g | number of animals with bloody stools ([2]; BEA 10 mg/kg): 5/12 | number of animals with fecal occult blood (3rd day) ([2]; BEA 10 mg/kg): 7/12 | White blood cell count ([2]; BEA 10 mg/kg): 5.9 ± 1.4 X10^9 | Macrohage cell count ([2]; BEA 10 mg/kg): 28.3 ± 8.9 X10^5 | Final weight ([2]; BEA 20 mg/kg): 25.7 ± 1.8 g | IL-6/TNF-alpha ([2]; BEA 20 mg/kg): 16.8 ± 8.0 | IL-6 level ([2]; BEA 20 mg/kg): 589.1 ± 227.1 pg/mL | Spleen index ([2]; BEA 20 mg/kg): 5.9 ± 1.0 mg/g | TNFa level ([2]; BEA 20 mg/kg): 49.1 ± 37.0 pg/mL | The length of colon ([2]; BEA 20 mg/kg): 10.5 ± 0.9 cm | Thymus index ([2]; BEA 20 mg/kg): 2.9 ± 0.7 mg/g | Weight before fasting ([2]; BEA 20 mg/kg): 27.7 ± 2.5 g | number of animals with bloody stools ([2]; BEA 20 mg/kg): 5/12 | number of animals with fecal occult blood (3rd day) ([2]; BEA 20 mg/kg): 7/12 | White blood cell count ([2]; BEA 20 mg/kg): 5.2 ± 1.5# X10^9 | Macrohage cell count ([2]; BEA 20 mg/kg): 32.3 ± 1.3# X10^5 | Final weight ([2]; BEA 40 mg/kg): 25.6 ± 1.7 g | IL-6/TNF-alpha ([2]; BEA 40 mg/kg): 12.7 ± 8.6 | IL-6 level ([2]; BEA 40 mg/kg): 370.8 ± 219.1 pg/mL | Spleen index ([2]; BEA 40 mg/kg): 6.4 ± 1.2 mg/g | TNFa level ([2]; BEA 40 mg/kg): 31.4 ± 15.1 pg/mL | The length of colon ([2]; BEA 40 mg/kg): 9.2 ± 0.8 cm | Thymus index ([2]; BEA 40 mg/kg): 3.1 ± 0.7 mg/g | Weight before fasting ([2]; BEA 40 mg/kg): 27.6 ± 1.7 g | number of animals with bloody stools ([2]; BEA 40 mg/kg): 6/12 | number of animals with fecal occult blood (3rd day) ([2]; BEA 40 mg/kg): 6/12 | White blood cell count ([2]; BEA 40 mg/kg): 5.9 ± 2.9 X10^9 | Macrohage cell count ([2]; BEA 40 mg/kg): 24.6 ± 3.4 X10^5 | reduction of M-Spike [3]: 40% | reduction on the development of amoebic liver abscesses [4]: 20% | reduction of parasite load compared with controls [5]: 50%

C[C@@H]1C[C@H]2[C@@H]3CCC4=CC(=O)C=C[C@]4(C)[C@@]3(F)[C@@H](O)C[C@]2(C)[C@@]1(O)C(=O)CO [Dex, Dexamethasone, reference compound]
IL-6/TNF-alpha ([2]; Dexamethasone 0.1 mg/kg): 15.8 ± 8.7 | IL-6 level ([2]; Dexamethasone 0.1 mg/kg): 791.7 ± 234.3 pg/mL | Spleen index ([2]; Dexamethasone 0.1 mg/kg): 7.9 ± 1.7 mg/g | TNFa level ([2]; Dexamethasone 0.1 mg/kg): 92.4 ± 42.1 pg/mL | The length of colon ([2]; Dexamethasone 0.1 mg/kg): 9.9 ± 1.2 cm | Thymus index ([2]; Dexamethasone 0.1 mg/kg): 0.9 ± 0.4 mg/g | number of animals with bloody stools ([2]; Dexamethasone 0.1 mg/kg): 8/12 | number of animals with fecal occult blood (3rd day) ([2]; Dexamethasone 0.1 mg/kg): 9/12 | White blood cell count ([2]; Dexamethasone 0.1 mg/kg): 5.0 ± 2.6# X10^9 | Macrohage cell count ([2]; Dexamethasone 0.1 mg/kg): 24.4 ± 5.7 X10^5

From patent US11685762B2, “Aqueous suspension compositions, formulations, and water dispersible dry compositions comprising 16alpha-bromo-3beta-hydroxy-5alpha-androstan-17-ketone and hydrates, derivatives, and analogs thereof” (SD Chem, Inc., priority 2019, dated 2023)
